# Read-outs that look alike come from different tables or passages of the source. Marks after values point to notes of the source that are not given here.
# Key:
# [1] = tested on: Factor VII (FVII); conditions: for FVII ED50: Table 11; for survival: 15 mg/kg dose, mice; for fold less active than DLinDMA: mouse FVII model
# Text: It is well established that in vivo RNAi silencing of specific hepatocyte proteins can be achieved following intravenous (i.v.) administration of siRNA's encapsulated in, or associated with, select nanoparticles designed for intracellular delivery. […] In this Example, rational design in combination with in vivo screening were applied to systematically modify the structure of DLinDMA and identify molecular features that enhance or reduce cationic lipid potency. More than 30 lipids were synthesized and incorporated into nucleic acid-lipid particles, i.e., lipid nanoparticles (LN) encapsulating an siRNA (LN-siRNA) targeting Factor VII (FVII), a blood clotting component synthesized and secreted by hepatocytes that is readily measured in serum. LN-siRNA systems were prepared using the same process, lipid molar ratios and particle size to minimize effects on activity resulting from formulation characteristics other than the cationic lipid. Each formulation was administered as a single bolus injection over a range of doses enabling an estimate of the siRNA dose required to reduce FVII serum protein concentrations by 50% after 24 h (ED50).
# FVII activity was evaluated in FVII siRNA-treated animals at 24 hours after intravenous (bolus) injection in C57BL/6 mice or 48 hours after intravenous (bolus) injection in SD rats. Six to 8 week old, female C57Bl/6 mice were obtained from Charles River Laboratories and acclimated for one week prior to use in studies. Animals were held in a pathogen-free environment and all procedures involving animals were performed in accordance with the guidelines established by the Canadian Council on Animal Care.
# LN-siRNA systems containing Factor VII siRNA were diluted to the appropriate concentrations in sterile phosphate buffered saline immediately prior to use, and the formulations were administered intravenously via the lateral tail vein in a total volume of 10 ml/kg. After 24 h, animals were anaesthetised with Ketamine/Xylazine and blood was collected by cardiac puncture and processed to serum (Microtainer Serum Separator Tubes; Becton Dickinson, Franklin Lakes, N.J., USA). Serum was tested immediately or stored at −70° C. for later analysis for serum Factor VII levels.
# FVII was measured using a commercially available kit (Biophen FVII Kit™; Aniara Corp., Mason, Ohio), following the manufacturer's instructions at a microplate scale. FVII reduction was determined against untreated control animals, and the results were expressed as % Residual FVII. Five dose levels (0.1, 0.3, 0.5, 1.0, and 3.0 mg/kg) were typically used.
# Serum Factor VII levels were determined using the colorimetric Biophen VII assay kit (Anaira, USA). Briefly, serially diluted pooled control serum (200%-3.125%) and appropriately diluted plasma samples from treated animals were analyzed using the Biophen VII kit according to manufacturer's instructions in 96-well, flat bottom, non-binding polystyrene assay plates (Corning, Corning, N.Y.) and absorbance at 405 nm was measured. A calibration curve was generated using the serial diluted control serum and used to determine levels of Factor VII in serum from treated animals.
# Initial studies were performed in eight to 10 week old, female C57BL/6 mice in two stages. In the first stage, the activity associated with the benchmark lipid DLinDMA was compared to the activity associated with modified forms of DLinDMA.
# [2] = Pharmacokinetic and liver analysis of Cy-3 labeled siRNA in LN-siRNA systems; type: in vivo
# Text: A fluorescently labeled siRNA (Cy-3 labeled luciferase siRNA, Alnylam Pharmaceuticals) was used to measure the siRNA content in plasma and liver after iv administration of LN-siRNA systems. The measurements were done by first extracting the Cy3-siRNA from the protein-containing biological matrix and then analyzing the amount of Cy-3 label in the extract by fluorescence. Two extraction methods were used, a chloroform/methanol mixture for the plasma samples and a commercial phenol/chloroform mixture (Trizol® reagent) with the tissue samples.
# For plasma, blood was collected in EDTA-containing Vacutainer tubes and centrifuged at 1000×g for 10 min at 4-8° C. to isolate the plasma. The plasma was transferred to an eppendorf tube and either assayed immediately or stored in a −30° C. freezer. An aliquot of the plasma (100 μL maximum) was diluted to 500 μL with PBS (145 mM NaCl, 10 mM phosphate, pH 7.5), methanol (1.05 mL and chloroform (0.5 mL) was added, and the sample vortexed to obtain a clear, single phase solution. Water (0.5 mL) and chloroform (0.5 mL) was then added and the resulting emulsion sustained by mixing periodically for a minimum of 3 minutes. The mixture was centrifuged at 3000 rpm for 20 minutes and the top aqueous phase containing the Cy-3-label transferred to a new test tube. The fluorescence of the solution was measured using an SLM Fluorimeter at an excitation wavelength of 550 nm (2 nm bandwidth) and emission wavelength of 600 nm (16 nm bandwidth). A standard curve was generated by spiking aliquots of plasma from untreated animals with the Cy-3-siRNA containing formulation (0 to 15 μg/mL), and the sample processed as indicated above.
# For liver, sections (400-500 mg) of tissue from saline-perfused animals was accurately weighed and homogenized in 1 mL of Trizol using Fastprep tubes. An aliquot of the homogenate (typically equivalent to 50 mg of tissue) was transferred to an eppendorf tube and additional Trizol added to 1 mL final. Chloroform (0.2 mL) was added, and the solution was mixed and incubated for 2-3 min before being centrifuged for 15 min at 12,000×g. An aliquot (0.5 mL) of the top Cy-3-containing aqueous phase was diluted with 0.5 mL of PBS and the fluorescence of the sample measured as described above.
# The correlation between levels of siRNA delivered to the liver and FVII reduction was determined by encapsulating Cy-3 labeled siRNA in the selection of LN-siRNA systems covering a spectrum of in vivo activities shown in Table 8. Cy-3 fluorescence was measured in plasma and liver tissue 0.5 and 3.0 h post injection.
# [3] = In situ determination of apparent pKa using TNS fluorescence titration
# [4] = Table 3, siRNA dose reducing serum FVII protein by 50% at 24 h, single i.v. bolus, PFV LN-siRNA 40/10/40/10
# [5] = Table 6, siRNA dose reducing serum FVII protein by 50% at 24 h, PFV LN-siRNA 40/10/40/10
# [6] = Table 4, siRNA dose reducing serum FVII protein by 50% at 24 h, PFV LN-siRNA 40/10/40/10
# [7] = Table 8, FVII ED50 of the LN-siRNA system
# [8] = Table 7, siRNA dose reducing serum FVII protein by 50% at 24 h, PFV LN-siRNA 40/10/40/10
# [9] = siRNA dose reducing serum FVII protein by 50% at 24 h, PFV LN-siRNA 40/10/40/10
# [10] = Table 5, siRNA dose reducing serum FVII protein by 50% at 24 h, PFV LN-siRNA 40/10/40/10
compound,measurement,setting,value
"1,2-Dilinoleyloxy-3-(2-N,N-dimethylamino) ethoxypropane [DLin-EG-DMA]",ED50,[1]; [4],5 to 12 mg/kg
"1,2-Dilinoleyloxy-3-trimethylaminopropane chloride [DLinTMA.Cl]",ED50,[1]; [4],2 to 5 mg/kg
"2,2-dilinoleyl-4-N-morpholino-[1,3]-dioxolane [DLin-K-MA]",FVII activity at maximum dose tested,[1]; 15 mg/kg maximum dose,inactive
same,ED50,[1]; [5],>15 mg/kg
same,FVII ED50,[1],>15 mg/kg
"CCCCC/C=C\C/C=C\CCCCCCCCOC(COC(=O)CCCCCCC/C=C\C/C=C\CCCCC)CN(C)C (centres unmarked) [DLin-2-DMAP, 1-Linoleoyl-2-linoeyloxy-3-dimethylaminopropane]",Liver Cy-3 siRNA,[2]; 0.5 h post injection,20.5 % injected dose
same,Plasma Cy-3 siRNA,[2]; 0.5 h post injection,17.5 % injected dose
same,Liver Cy-3 siRNA,[2]; 3.0 h post injection,2.5 % injected dose
same,Plasma Cy-3 siRNA,[2]; 3.0 h post injection,8.8 % injected dose
same,ED50,[1]; [6],5 to 12 mg/kg
same,ED50,[1]; [7],5 to 12 mg/kg
"CCCCC/C=C\C/C=C\CCCCCCCCNC(=O)OCC(CN(C)C)OC(=O)NCCCCCCCC/C=C\C/C=C\CCCCC (centres unmarked) [DLin-C-DAP, 1,2-Dilinoleylcarbamoyloxy-3-dimethylaminopropane]",Liver Cy-3 siRNA,[2]; 0.5 h post injection,28.5 % injected dose
same,Plasma Cy-3 siRNA,[2]; 0.5 h post injection,69.4 % injected dose
same,Liver Cy-3 siRNA,[2]; 3.0 h post injection,13.5 % injected dose
same,Plasma Cy-3 siRNA,[2]; 3.0 h post injection,19.0 % injected dose
same,ED50,[1]; [6],12 to 25 mg/kg
same,ED50,[1]; [7],12 to 25 mg/kg
"CCCCC/C=C\C/C=C\CCCCCCCCC1(CCCCCCCC/C=C\C/C=C\CCCCC)OCC(CN(C)C)CO1 [DLin-K6-DMA, 2,2-dilinoleyl-5-dimethylaminomethyl-[1,3]-dioxane]",pKa,[3],6.2
same,ED50,[1]; [8],~0.3 mg/kg
same,FVII ED50,[1],~0.3 mg/kg
CCCCC/C=C\C/C=C\CCCCCCCCC1(CCCCCCCC/C=C\C/C=C\CCCCC)OCC(CN(C)C)O1 (stereo not drawn) [DLin-K-DMA (+)],ED50,[1]; [9],~0.3 mg/kg
"CCCCC/C=C\C/C=C\CCCCCCCCC1(CCCCCCCC/C=C\C/C=C\CCCCC)OCC([N+](C)(C)C)O1.[Cl-] (centres unmarked) [DLin-K-TMA.Cl, 2,2-Dilinoleyl-4-trimethylamino-[1,3]-dioxolane Chloride]",FVII activity,[1]; 5 mg/kg,No activity observed
same,body weight,"[1]; 5 mg/kg, data not shown",significant weight loss
same,FVII activity,"[1]; 5 mg/kg, listed as DLin-K-TMA",No activity was observed
same,survival,[1],lethal
same,survival,[1]; listed as DLin-K-TMA,did not survive
same,ED50,[1]; [5],>5^a mg/kg
"CCCCC/C=C\C/C=C\CCCCCCCCC1(CCCCCCCC/C=C\C/C=C\CCCCC)OC(CN(C)C)C(CN(C)C)O1 (centres unmarked) [DLin-K^2-DMA, 2,2-Dilinoleyl-4,5-bis(dimethylaminomethyl)-[1,3]-dioxolane]",ED50,[1]; [5],~0.4 mg/kg
"CCCCC/C=C\C/C=C\CCCCCCCCC(CCCCCCCC/C=C\C/C=C\CCCCC)OC(=O)CCN(C)C [DLin-M-DMA, Dilinoleylmethyl 3-Dimethylaminopropionate]",ED50,[1]; [8],~0.7 mg/kg
same,ED50,[1]; [9],~0.7 mg/kg
"CCCCC/C=C\C/C=C\CCCCCCCCSCC(CN(C)C)SCCCCCCCC/C=C\C/C=C\CCCCC (centres unmarked) [DLin-S-DMA, 1 ,2-Dilinoleylthio-3-dimethylaminopropane]",ED50,[1]; [6],12 to 25 mg/kg
same,ED50,[1]; [7],12 to 25 mg/kg
CCCCC/C=C\C/C=C\CCCCCCCCN(CCCCCCCC/C=C\C/C=C\CCCCC)CC(O)CO (centres unmarked) [DLinAP],ED50,[1]; [10],5 to 12 mg/kg
same,ED50,[1]; [7],5 to 12 mg/kg
same,ED50,[1]; [9],5 to 12 mg/kg
"CCCCC/C=C\C/C=C\CCCCCCCCOCC(COC(=O)CN(C)C)OCCCCCCCC/C=C\C/C=C\CCCCC (centres unmarked) [DLinDAC, 1,2-Dilinoleyloxy-3-(dimethylamino) acetoxypropane]",ED50,[1]; [4],5 to 12 mg/kg
same,ED50,[1]; [7],12 to 25 mg/kg
"CCCCC/C=C\C/C=C\CCCCCCCCOCC(CN1CCOCC1)OCCCCCCCC/C=C\C/C=C\CCCCC (centres unmarked) [DLinMA, 1,2-Dilinoleyloxy-3-morpholinopropane]",ED50,[1]; [4],12 to 25 mg/kg
same,ED50,[1]; [7],12 to 25 mg/kg
same,ED50,[1]; [9],12 to 25 mg/kg
"CCCCC/C=C\C/C=C\CCCCCCCCOCC(CN1CCN(C)CC1)OCCCCCCCC/C=C\C/C=C\CCCCC (centres unmarked) [DLinMPZ, 1,2-Dilinoleyloxy-3-(N-methylpiperazino) propane]",ED50,[1]; [4],2 to 5 mg/kg
same,ED50,[1]; [7],2 to 5 mg/kg
CCCCC/C=C\C/C=C\CCCCCCCC(=O)OCC(C[N+](C)(C)C)OC(=O)CCCCCCC/C=C\C/C=C\CCCCC.[Cl-] (centres unmarked) [DLinTAP.Cl],ED50,[1]; [10],>25 mg/kg
CCCC/C=C\CCCCCCCC(=O)OCC(CN(C)C)OC(=O)CCCCCCC/C=C\CCCC (centres unmarked) [DMDAP],FVII activity at maximum dose tested,[1]; 10 mg/kg maximum dose,no activity was observed
same,ED50,[1]; [10],>10 mg/kg
CCCCCCCC/C=C\CCCCCCCCNC(=O)OCC(CN(C)C)OC(=O)NCCCCCCCC/C=C\CCCCCCCC (centres unmarked) [DO-C-DAP],FVII activity at maximum dose tested,[1]; 10 mg/kg maximum dose,inactive
same,ED50,[1]; [10],>10 mg/kg
CCCCCCCC/C=C\CCCCCCCCC1(CCCCCCCC/C=C\CCCCCCCC)OCC(CN(C)C)O1 (centres unmarked) [DO-K-DMA],ED50,[1]; [8],~1.0 mg/kg
same,ED50,[1]; [9],~1.0 mg/kg
"CCCCCCCC/C=C\CCCCCCCC(=O)OCC(CN(C)C)OC(=O)CCCCCCC/C=C\CCCCCCCC (centres unmarked) [DODAP, 1,2-dioleoyl-3-dimethylammonium propane, reference compound]",ED50,[1]; [10],>25 mg/kg
same,fold less active than DLinDMA,[1],more than 25 fold
"CCCCCCCC/C=C\CCCCCCCCOCC(CN(C)C)OCCCCCCCC/C=C\CCCCCCCC (centres unmarked) [DODMA, reference compound]",ED50,[1]; [10],2 to 5 mg/kg
same,fold less active than DLinDMA,[1],2 to 5 fold
"CCCCCCCC/C=C\CCCCCCCC(=O)OCC(C[N+](C)(C)C)OC(=O)CCCCCCC/C=C\CCCCCCCC.[Cl-] (centres unmarked) [DOTAP.Cl, 1,2-Dioleyloxy-3-trimethylaminopropane chloride salt, reference compound]",ED50,[1]; [10],>25 mg/kg
CCCCCCCCCCCCCCCCCCC1(CCCCCCCCCCCCCCCCCC)OCC(CN(C)C)O1 (centres unmarked) [DS-K-DMA],ED50,[1]; [8],~8.0 mg/kg
same,ED50,[1]; [9],~8.0 mg/kg
